Drawing on ChEMBL document CHEMBL1134133, “Neutral inhibitors of the serine protease factor Xa” (Bioorg Med Chem Lett, 2001), this text covers Ki' for 17 compounds.

Assay [1] addresses Coagulation factor X (Homo sapiens) (UniProt P00742). The experiment in a line: In vitro inhibition of human coagulation factor X.
In assay [2] the target is T1, Coagulation factor VII (Homo sapiens) (UniProt P08709).
T1 sequence (whole entry): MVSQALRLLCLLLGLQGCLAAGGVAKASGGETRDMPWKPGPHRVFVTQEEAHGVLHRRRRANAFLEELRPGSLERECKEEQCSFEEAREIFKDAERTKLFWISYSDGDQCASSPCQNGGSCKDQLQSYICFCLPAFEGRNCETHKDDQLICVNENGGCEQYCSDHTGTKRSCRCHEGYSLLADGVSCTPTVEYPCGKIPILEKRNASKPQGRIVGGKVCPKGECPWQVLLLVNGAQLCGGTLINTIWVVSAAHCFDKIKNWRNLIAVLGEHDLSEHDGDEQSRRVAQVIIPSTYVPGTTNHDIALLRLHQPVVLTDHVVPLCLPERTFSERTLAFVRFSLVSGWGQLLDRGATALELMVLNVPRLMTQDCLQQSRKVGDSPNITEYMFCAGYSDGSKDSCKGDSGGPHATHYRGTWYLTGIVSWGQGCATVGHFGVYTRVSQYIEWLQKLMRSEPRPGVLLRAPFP
The experiment in a line: Inhibitory activity against Coagulation factor VII at pH 8.2.

Assay [3] has as its target Coagulation factor X (Homo sapiens) (UniProt P00742). The experiment in a line: Inhibitory activity against serine protease Coagulation factor X at pH 7.4.
Assay [4] has as its target Urokinase-type plasminogen activator (Homo sapiens) (UniProt P00749). The experiment in a line: Inhibitory activity against urokinase-type plasminogen activator (microPa) at pH 8.2.
Assay [5] deals with Coagulation factor X (Homo sapiens) (UniProt P00742). The experiment in a line: Inhibitory activity against serine protease Coagulation factor X at pH 8.2.
Sequence of Coagulation factor X (Homo sapiens) (P00742 41-179 limits assumed): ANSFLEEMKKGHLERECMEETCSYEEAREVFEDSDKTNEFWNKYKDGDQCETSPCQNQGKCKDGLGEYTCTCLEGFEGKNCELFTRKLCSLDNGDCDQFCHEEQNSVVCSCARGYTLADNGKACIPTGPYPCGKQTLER
Sequence of Coagulation factor X (Homo sapiens) (P00742 235-488 limits assumed): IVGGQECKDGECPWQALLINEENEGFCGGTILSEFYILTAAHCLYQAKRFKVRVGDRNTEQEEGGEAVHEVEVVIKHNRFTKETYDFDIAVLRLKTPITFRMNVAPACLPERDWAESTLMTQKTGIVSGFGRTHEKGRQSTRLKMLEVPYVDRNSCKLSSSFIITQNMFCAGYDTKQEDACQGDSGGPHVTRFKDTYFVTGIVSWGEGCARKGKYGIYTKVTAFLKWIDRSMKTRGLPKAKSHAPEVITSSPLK
Assay [6] concerns the target Vitamin K-dependent protein C (Homo sapiens) (UniProt P04070). The experiment in a line: Inhibitory activity against Activated protein C at pH 8.2.
Assay [7] deals with Serine protease 1 (Homo sapiens) (UniProt P07477). The experiment in a line: Inhibitory activity against trypsin at pH 8.2.
Sequence of Serine protease 1 (Homo sapiens) (P07477 whole entry): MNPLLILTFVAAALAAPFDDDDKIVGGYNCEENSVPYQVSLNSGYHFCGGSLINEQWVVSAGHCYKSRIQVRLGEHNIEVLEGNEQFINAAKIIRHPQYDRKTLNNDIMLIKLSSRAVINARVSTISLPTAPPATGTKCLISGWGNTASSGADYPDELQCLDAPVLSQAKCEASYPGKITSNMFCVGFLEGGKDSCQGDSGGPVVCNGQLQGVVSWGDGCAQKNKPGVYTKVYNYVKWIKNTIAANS
Assay [8] addresses Prothrombin (Homo sapiens) (UniProt P00734). The experiment in a line: Inhibitory activity against thrombin at pH 8.2.
Assay [9] deals with Tissue-type plasminogen activator (Homo sapiens) (UniProt P00750). The experiment in a line: Inhibitory activity against tissue plasminogen activator (tissue plasminogen activator) at pH 8.2.
Sequence of Tissue-type plasminogen activator (Homo sapiens) (P00750 36-562 limits assumed): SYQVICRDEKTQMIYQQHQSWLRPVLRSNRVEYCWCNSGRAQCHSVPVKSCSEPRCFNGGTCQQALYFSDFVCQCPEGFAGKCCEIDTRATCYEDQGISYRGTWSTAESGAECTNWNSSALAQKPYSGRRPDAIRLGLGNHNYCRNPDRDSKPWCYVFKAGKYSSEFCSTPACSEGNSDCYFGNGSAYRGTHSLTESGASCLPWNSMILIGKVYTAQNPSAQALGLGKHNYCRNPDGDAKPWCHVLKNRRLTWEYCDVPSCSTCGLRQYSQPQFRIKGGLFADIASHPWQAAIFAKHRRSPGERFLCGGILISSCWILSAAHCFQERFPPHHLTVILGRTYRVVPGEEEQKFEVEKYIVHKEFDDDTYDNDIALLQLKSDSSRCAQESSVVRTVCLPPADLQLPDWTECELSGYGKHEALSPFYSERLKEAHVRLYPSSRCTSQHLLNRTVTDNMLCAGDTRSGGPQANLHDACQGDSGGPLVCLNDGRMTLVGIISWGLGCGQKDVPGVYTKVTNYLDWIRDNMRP
Assay [10] addresses Plasminogen (Homo sapiens) (UniProt P00747). The experiment in a line: Inhibitory activity against plasmin at pH 8.2.

Some results are limits rather than exact numbers.

Sequence of Vitamin K-dependent protein C (Homo sapiens) (P04070 43-197 limits assumed): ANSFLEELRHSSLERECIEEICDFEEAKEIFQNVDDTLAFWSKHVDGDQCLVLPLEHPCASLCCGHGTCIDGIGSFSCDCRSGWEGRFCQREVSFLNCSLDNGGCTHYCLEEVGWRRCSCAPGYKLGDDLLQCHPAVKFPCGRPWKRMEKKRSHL
Sequence of Vitamin K-dependent protein C (Homo sapiens) (P04070 212-461 limits assumed): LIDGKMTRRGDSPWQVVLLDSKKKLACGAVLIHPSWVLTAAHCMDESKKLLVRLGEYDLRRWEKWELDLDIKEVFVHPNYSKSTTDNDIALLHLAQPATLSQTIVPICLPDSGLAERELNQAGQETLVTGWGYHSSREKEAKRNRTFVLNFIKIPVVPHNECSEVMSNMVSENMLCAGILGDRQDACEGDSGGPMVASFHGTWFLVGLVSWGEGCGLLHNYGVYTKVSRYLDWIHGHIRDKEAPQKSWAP
Sequence of Plasminogen (Homo sapiens) (P00747 whole entry, looked up): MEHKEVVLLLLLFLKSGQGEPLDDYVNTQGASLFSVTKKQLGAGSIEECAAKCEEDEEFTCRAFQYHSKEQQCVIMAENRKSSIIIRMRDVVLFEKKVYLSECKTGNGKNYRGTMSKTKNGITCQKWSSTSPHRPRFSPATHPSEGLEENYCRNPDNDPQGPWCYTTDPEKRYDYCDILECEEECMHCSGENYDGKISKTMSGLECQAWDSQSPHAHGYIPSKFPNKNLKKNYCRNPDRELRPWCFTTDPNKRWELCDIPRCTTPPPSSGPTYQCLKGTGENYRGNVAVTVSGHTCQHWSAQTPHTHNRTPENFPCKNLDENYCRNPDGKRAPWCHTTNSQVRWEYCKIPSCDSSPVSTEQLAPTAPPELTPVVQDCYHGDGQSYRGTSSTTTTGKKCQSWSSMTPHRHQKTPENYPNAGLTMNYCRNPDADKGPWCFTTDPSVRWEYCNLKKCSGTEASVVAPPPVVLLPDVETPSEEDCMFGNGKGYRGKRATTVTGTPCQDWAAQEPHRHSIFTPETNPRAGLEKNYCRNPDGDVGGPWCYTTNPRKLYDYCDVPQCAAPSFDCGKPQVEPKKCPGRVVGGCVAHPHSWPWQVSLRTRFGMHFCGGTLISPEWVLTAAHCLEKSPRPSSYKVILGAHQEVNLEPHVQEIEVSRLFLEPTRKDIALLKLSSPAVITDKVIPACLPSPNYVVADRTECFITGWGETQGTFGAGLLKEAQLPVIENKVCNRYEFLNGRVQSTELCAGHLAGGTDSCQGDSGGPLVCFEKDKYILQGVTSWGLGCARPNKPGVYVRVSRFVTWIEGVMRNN

Consider `Cc1ccc(NC(=O)c2sc3ccccc3c2Cl)c(C(=O)Nc2ccc(N(C)C)cc2)c1`, for which, in assay [1], the Ki' is over 1200 µM.
In turn, `Cc1ccc(NC(=O)c2sc3ccccc3c2Cl)c(C(=O)N2CCNCC2)c1` displayed a Ki' in [1] of over 1200 µM.
`Cc1ccc(NC(=O)c2sc3ccccc3c2Cl)c(C(=O)Nc2ccc(F)cc2)c1`: the Ki' in assay [2] is over 900 µM; in assay [1], 0.57 µM; in assay [3], 0.042 µM; in assay [4], over 150 µM; in [5], 2.1 µM; in assay [6] it was over 150 µM. Further, the Ki' in [7] is over 150 µM; in assay [8], 125 µM; in assay [9], over 150 µM; in assay [10] it was over 150 µM.
For the compound `Cc1ccc(NC(=O)c2sc3ccccc3c2Cl)c(C(=O)Nc2ccccc2Cl)c1`, in assay [1], the Ki' was over 1200 µM.
The same measure, in the same setting: for `Cc1ccc(NC(=O)c2cc3ccc(O)cc3s2)c(C(=O)Nc2ccc(F)cc2)c1` the value was 10 µM; for `O=C(Nc1ccc(F)cc1)c1ccccc1NC(=O)c1sc2ccccc2c1Cl`, 3.1 µM.
For `Cc1ccc(NC(=O)c2sc3ccccc3c2Cl)c(C(=O)Nc2ccc(Cl)cc2)c1`, in [1], the Ki' was 0.21 µM.
On to `O=C(Nc1ccccn1)c1ccccc1NC(=O)c1sc2ccccc2c1Cl`, for which the Ki' in assay [1] came to 7.8 µM.
Turning to `Cc1ccc(NC(=O)c2sc3ccccc3c2Cl)c(C(=O)Nc2ccc(N3CCOCC3)cc2)c1`, the Ki' in assay [1] is 436 µM.
Compound `O=C(Nc1ccccc1C(=O)N1CCOCC1)c1sc2ccccc2c1Cl` returned a Ki' in assay [1] of over 150 µM.
For `COc1ccc(NC(=O)c2cc(C)ccc2NC(=O)c2sc3ccccc3c2Cl)cc1`, in assay [1], the Ki' was determined as 2.1 µM.
In turn, `Cc1ccc(NC(=O)c2sc3ccccc3c2Cl)c(C(=O)Nc2ccncc2)c1` registered a Ki' in assay [1] of 22.1 µM.
Turning to `O=C(O)c1cccc(NC(=O)c2ccccc2NC(=O)c2sc3ccccc3c2Cl)c1`, the Ki' in assay [1] was over 150 µM.
The same measure, in the same setting: for `Cc1ccc(NC(=O)c2cc3cc(O)ccc3s2)c(C(=O)Nc2ccc(F)cc2)c1` the value was 3.5 µM; for `Cc1ccc(NC(=O)c2sc3ccccc3c2Cl)c(C(=O)Nc2ccc(O)cc2)c1`, 97 µM; for `O=C(O)c1ccc(NC(=O)c2ccccc2NC(=O)c2sc3ccccc3c2Cl)cc1`, over 150 µM.
`Cc1ccc(NC(=O)c2sc3ccccc3c2Cl)c(C(=O)Nc2ccc3c(c2)OCO3)c1` showed a Ki' in assay [1] of 17.7 µM.
